The text below walks through data of BindingDB's records for doi:10.7270/Q2RN3686 (Emory University, 2009).

For the assay, the target named is Eukaryotic translation initiation factor 4 gamma 1 (Homo sapiens, UniProt Q04637). In words: blockers of eIF4G binding by eIF4E – biochemical, TR-FRET, dose response (AID 855).

Molecules are shown by their SMILES. Some results are limits rather than exact numbers.

Sequence of Eukaryotic translation initiation factor 4 gamma 1 (Q04637 whole entry): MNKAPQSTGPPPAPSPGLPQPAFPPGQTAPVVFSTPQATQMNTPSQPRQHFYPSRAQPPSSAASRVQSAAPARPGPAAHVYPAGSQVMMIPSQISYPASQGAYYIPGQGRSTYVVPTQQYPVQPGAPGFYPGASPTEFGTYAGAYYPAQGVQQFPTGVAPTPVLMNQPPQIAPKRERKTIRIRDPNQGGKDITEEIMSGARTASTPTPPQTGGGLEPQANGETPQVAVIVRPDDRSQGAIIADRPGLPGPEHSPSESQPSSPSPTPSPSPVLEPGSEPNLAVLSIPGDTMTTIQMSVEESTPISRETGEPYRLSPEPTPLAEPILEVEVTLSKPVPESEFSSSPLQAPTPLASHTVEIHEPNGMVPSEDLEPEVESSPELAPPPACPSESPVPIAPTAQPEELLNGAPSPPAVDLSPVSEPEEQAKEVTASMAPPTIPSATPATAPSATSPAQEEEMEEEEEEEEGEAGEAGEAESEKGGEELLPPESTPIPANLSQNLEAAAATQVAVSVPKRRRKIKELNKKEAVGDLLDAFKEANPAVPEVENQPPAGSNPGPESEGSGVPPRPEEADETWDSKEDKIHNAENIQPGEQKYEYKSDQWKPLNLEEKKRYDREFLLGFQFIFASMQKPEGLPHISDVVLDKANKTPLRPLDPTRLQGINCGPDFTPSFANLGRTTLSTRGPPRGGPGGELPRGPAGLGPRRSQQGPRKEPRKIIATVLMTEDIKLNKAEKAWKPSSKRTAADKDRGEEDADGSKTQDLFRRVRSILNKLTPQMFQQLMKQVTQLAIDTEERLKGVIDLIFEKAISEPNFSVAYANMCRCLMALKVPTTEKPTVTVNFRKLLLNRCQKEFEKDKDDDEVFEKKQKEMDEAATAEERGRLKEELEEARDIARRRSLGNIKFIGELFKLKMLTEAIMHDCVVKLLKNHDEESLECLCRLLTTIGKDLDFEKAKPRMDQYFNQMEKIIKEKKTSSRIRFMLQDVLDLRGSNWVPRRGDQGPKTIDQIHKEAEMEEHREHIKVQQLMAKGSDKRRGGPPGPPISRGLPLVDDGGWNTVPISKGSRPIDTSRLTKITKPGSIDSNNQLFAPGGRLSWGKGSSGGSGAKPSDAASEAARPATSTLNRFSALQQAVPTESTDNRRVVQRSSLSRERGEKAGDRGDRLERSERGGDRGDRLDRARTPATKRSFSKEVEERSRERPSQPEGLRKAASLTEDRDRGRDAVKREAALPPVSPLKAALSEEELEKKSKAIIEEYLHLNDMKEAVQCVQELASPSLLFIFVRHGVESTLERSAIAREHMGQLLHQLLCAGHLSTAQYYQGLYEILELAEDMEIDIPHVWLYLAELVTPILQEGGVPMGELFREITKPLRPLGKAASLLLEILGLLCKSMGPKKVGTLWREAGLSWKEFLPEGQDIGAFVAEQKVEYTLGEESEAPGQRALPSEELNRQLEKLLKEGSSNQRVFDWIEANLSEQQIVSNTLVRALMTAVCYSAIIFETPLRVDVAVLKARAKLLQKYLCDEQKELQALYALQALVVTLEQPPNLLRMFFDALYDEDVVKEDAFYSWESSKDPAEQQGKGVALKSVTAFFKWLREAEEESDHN

`COc1ccc(Cc2c(O)n(-c3ccccc3)c(=O)[nH]c2=O)c(OC)c1`: the IC50 was over 64 µM.

As for `C=c1cc2[nH]c(=O)c(=Cc3cc(C)n(-c4ccccc4)c3C)c(=N)n2o1`, the IC50 is over 64 µM.

On to `COc1ccc(-c2cnnc(N=NCc3ccc(-c4ccc([N+](=O)[O-])cc4)o3)n2)cc1`, for which the IC50 was 50 µM.

As to `Oc1cc(N2CCN(Cc3ccc4c(c3)OCO4)CC2)c(O)n1-c1cccc(Cl)c1` [1-(3-chlorophenyl)-3-(4-piperonylpiperazino)pyrrolidine-2,5-quinone], the IC50 is over 64 µM.

The compound `O=C1Nc2ccc([N+](=O)[O-])cc2/C1=N/NC(=O)c1cc(-c2ccccc2Cl)nc2ccccc12` [2-(2-chlorophenyl)-N'-(2-keto-5-nitro-indol-3-yl)cinchoninohydrazide] gave an IC50 of over 64 µM.

Turning to `CC(=O)C1=C(c2ccccc2)OC(=N)C(C#N)C1c1ccc(O)cc1` (configuration not stated) [2-azanyl-5-ethanoyl-4-(4-hydroxyphenyl)-6-phenyl-4H-pyran-3-carbonitrile], the IC50 was over 64 µM.

As to `CC(C)(C)c1[nH]nc2c1C(c1ccc(OC(=O)c3ccco3)cc1)C(C#N)C(=N)O2` (configuration not stated) [2-furancarboxylic acid [4-(6-amino-3-tert-butyl-5-cyano-2,4-dihydropyrano[2,3-c]pyrazol-4-yl)phenyl] ester], the IC50 is over 64 µM.

The compound `CSc1ccc(CN=Nc2cccc(C(=O)O)c2)cc1` [3-[(N'E)-N'-[4-(methylthio)benzylidene]hydrazino]benzoic acid] yielded a concentration for half-maximal inhibition (IC50) of 50 µM.

Regarding `O=C1CCCC(=O)C1C(C#Cc1ccccc1)C1C(=O)CCCC1=O` [3-hydroxy-2-[1-(2-hydroxy-6-keto-cyclohexen-1-yl)-3-phenyl-prop-2-ynyl]cyclohex-2-en-1-one], the IC50 is over 64 µM.

`Cc1cc(CN=Nc2ccc([N+](=O)[O-])cn2)c(C)n1-c1ccc(C(=O)O)cc1` [4-{2,5-dimethyl-3-[2-(5-nitro-2-pyridinyl)carbonohydrazonoyl]-1H-pyrrol-1-yl}benzoic acid]: the IC50 turned out to be 50 µM. In other words, the double-digit micromolar range.

`O=C1CCCC2=Nc3[nH]c(=S)[nH]c(=O)c3C(c3ccc(Br)cc3)C12` (configuration not stated) [5-(4-bromophenyl)-2-thioxo-2,3,5,8,9,10-hexahydropyrimido[4,5-b]quinoline-4,6(1H,7H)-dione] returned a half-inhibitory concentration (IC50) of over 64 µM.

`NC(=NNC=c1ccc(=C2C=CC(=O)C(C(=O)O)=C2)o1)N[N+](=O)[O-]` [5-(5-{2-[amino(nitroimino)methyl]carbonohydrazonoyl}-2-furyl)-2-hydroxybenzoic acid]: the IC50 was 63.6 µM.

Regarding `CC(=O)C1=C(C)N=C(SCc2ccc(C#N)cc2)C(C#N)C1c1ccco1` (configuration not stated) [5-acetyl-2-[(4-cyanophenyl)methylsulfanyl]-4-(furan-2-yl)-6-methyl-1,4-dihydropyridine-3-carbonitrile], the IC50 is over 64 µM.

As to `COc1ccc(Cn2c(Nc3cc(Cl)ccc3OC)c3[nH]cccc-3c2=O)cc1` [7-[(5-chloranyl-2-methoxy-phenyl)amino]-6-[(4-methoxyphenyl)methyl]-7H-pyrrolo[3,4-b]pyridin-5-one], the IC50 turned out to be 14.4 µM.

Regarding `CN(C)[C@@H]1C(=O)C(C(N)=O)C(=O)[C@@]2(O)C(=O)C3C(=O)c4c(O)cccc4[C@@](C)(O)[C@H]3[C@H](O)[C@@H]12` (stereo partly drawn) [(2E,4S,4aR,5S,5aR,6S,12aS)-2-[azanyl(oxidanyl)methylidene]-4-(dimethylamino)-6-methyl-5,6,10,11,12a-pentakis(oxidanyl)-4,4a,5,5a-tetrahydrotetracene-1,3,12-trione], the IC50 is 50 µM.

On to `CN(C)[C@@H]1C(=O)C(C(=O)NCN2CCCC2)C(=O)[C@@]2(O)C(=O)C3C(=O)c4c(O)cccc4[C@@](C)(O)C3CC12` (stereo partly drawn) [(2Z,4S,6S,12aS)-4-(dimethylamino)-6,10,11,12a-tetrahydroxy-2-[hydroxy-(1-pyrrolidinylmethylamino)methylidene]-6-methyl-4,4a,5,5a-tetrahydrotetracene-1,3,12-trione], for which the IC50 is 12.3 µM.

In the case of `COc1ccc2nc(N3C(=O)C(=C4C(=O)Nc5ccccc54)NC3=S)sc2c1` [(3Z)-3-[1-(6-methoxy-1,3-benzothiazol-2-yl)-5-oxidanylidene-2-sulfanylidene-imidazolidin-4-ylidene]-1H-indol-2-one], the IC50 was over 64 µM.

`O=C1C=CC(CN=Nc2nccs2)C=C1[N+](=O)[O-]` (configuration not stated) [(4Z)-2-nitro-4-[(2-thiazolylhydrazo)methylidene]-1-cyclohexa-2,5-dienone] came in with an IC50 of 10.8 µM.

`COc1cc(C2C(C(=O)c3ccccc3)C(=O)C(=O)N2c2ccccn2)ccc1O` (configuration not stated) [(4Z)-5-(3-methoxy-4-oxidanyl-phenyl)-4-[oxidanyl(phenyl)methylidene]-1-pyridin-2-yl-pyrrolidine-2,3-dione] came in with a concentration for half-maximal inhibition (IC50) of 50 µM. This IC50 is about 4.6-fold higher than that of the compound before.

Take `O=C1N=C(Nc2ccc(O)cc2)SC1=C1C(=O)Nc2ccccc21` [(5Z)-2-[(4-hydroxyphenyl)amino]-5-(2-oxidanylidene-1H-indol-3-ylidene)-1,3-thiazol-4-one]: the IC50 came to 50 µM.

Turning to `O=[N+]([O-])c1cc(Br)c(O)c(CN=Nc2nnnn2-c2cccc3ccccc23)c1` [(6E)-2-bromo-6-[[2-(1-naphthalen-1-yltetrazol-5-yl)hydrazinyl]methylidene]-4-nitrocyclohexa-2,4-dien-1-one], the IC50 is over 64 µM.

For `O=NCC(=O)Nc1ccc(F)cc1` [MLS000036190], the half-inhibitory concentration (IC50) is over 64 µM.

In turn, `Cc1ccc(/C=C/C(=O)C2=C(O)N(C)C3(C)CC2c2ccccc2O3)cc1` (configuration not stated) [MLS000519940] had an IC50 of over 64 µM.

The compound `Cc1ccc(-n2c(C)cc(CN=Nc3ccc([N+](=O)[O-])cn3)c2C)cc1` [MLS000552475] gave an IC50 of over 64 µM.

In turn, `Cc1ccccc1C(=O)Nc1cccc(C(=O)N/N=C/C2C=C(Cl)C=C([N+](=O)[O-])C2=O)c1` (configuration not stated) [N-(3-{[(2E)-2-(5-chloro-2-hydroxy-3-nitrobenzylidene)hydrazino]carbonyl}phenyl)-2-methylbenzamide] had a 50% inhibitory concentration (IC50) of 50 µM. That is a double-digit micromolar value.

For `Cc1ccc(Nc2c3[nH]cccc-3c(=O)n2-c2ccccc2C)cc1C` [SMR000028201], the IC50 was found to be 9.59 µM.

`C[N+](C)(C)c1ccc(CN=Nc2nc(Cl)c(C#N)c(Cl)c2Cl)cc1` [trimethyl-[4-[[(3,4,6-trichloro-5-cyanopyridin-2-yl)hydrazinylidene]methyl]phenyl]azanium;iodide]: the IC50 was over 64 µM.
